Data on two compounds can be found in US20160303068A1, “Compositions and Methods For Treating Brain Injury and Brain Diseases” (University of Washington through its Center for …, priority 2013, published 2016).

Entries after “also recorded” stand apart in the source; their conditions may differ.

Data set [1] has as its system glia fibrillary acidic protein (GFAP) expression. Description: GFAP immunostain of CA1 region of hippocampus (reactive astrocytes). The class given is in vivo, 3×Tg-AD mice. The note with it: intranasal 0.6 mg/kg at 2 week intervals for 3 months; vs saline. As for the experimental part: Histology and Westerns. All confocal microscopy and immunohistochemistry are performed on perfusion fixed tissue prepared from animals that, immediately after euthanasia with pentobaritol (100 mg/kg), are perfused with saline followed by 4 percent paraformaldehyde/saline. For biochemical experiments (Western blots, etc.) other animals are perfused after death with saline and then the brains are rapidly dissected and flash frozen in liquid N2. Brain sections corresponding to the olfactory bulb are stained for Fluoro-Jade (1:1000, Histo-Chem Inc., AR, USA) as a marker of degenerating neurons and can be used to assess if 9 months of paclitaxel intranasal treatment may be neurotoxic. Glial fibrillary acidic protein (GFAP, 1:1500, Dako, Carpinteria, Calif.), an astroglial marker, and ionized calcium-binding adapter molecule 1 (Iba-1) (1:1000 Dako, Carpinteria, Calif.), a marker of microglial activation are processed using Avidin-Biotin procedure, which uses biotinylated secondary antibodies, avidin coupled to horse radish peroxidase (HRP) and reacted with 3,3′diaminobenzidine.
The application of paclitaxel to 3×Tg-AD mice (0.6 mg/kg at 2 week intervals for 3 months, intranasal administration) was investigated. It has been shown that microglia and astrocytes respond acutely to brain injury. […]

A further data set deals with wild-type mice. Nature of the data set: Manganese-enhanced MRI (MEMRI) of axonal transport rates, wild-type mice. The format is in vivo. The settings on record: wild-type mice treated with paclitaxel vs young wild-type controls, p≦0.01. The source says:
(§1) MRI: Mice are anesthetized with isoflurane and scanned on an ultra-high resolution 14T MRI (Avance III, Bruker BioSpin Corp, Billerica, Mass.). Dynamic manganese enhanced magnetic resonance imaging (dyMEMRI): Mice are anesthetized with isoflurane and administered a unilateral injection of Sul of 1 M MnCl2 intranasally (with occlusion to block septal window). Parameters for magnetization prepared rapid gradient echo (MPRAGE) (TR/TE=11/5.3 ms; Ti=1000 ms; FA=9 deg acquired matrix 108×108 mm over 55 slices, voxel 0.2×0.2×0.4 mm3 interpolated to 0.1×0.1×0.2 mm3). Mice are scanned dynamically for 45 min (early uptake) at 1 hour post administration, allowed to recover and scanned again at 4-6 hours post (late transport) for 60 min. DTI acquired as 4 shot echo planar image (EPI); TR/TE=4000/18 ms, 30 diffusion directions, multislice 2D, b=1000 s/mm2, FOV 19×19 mm, matrix size=128×128 with slice thickness=0.5 mm over 9 min. MicroPET: Metabolic brain activity is assessed using FDG-PET performed under isoflurane anesthesia with 30 min uptake after 250 μCi intraperitoneal injection of FDG. […]
(§2) Intranasal paclitaxel (Hospira, Inc., Lake Forest, Ill.) was administered to 3×Tg-AD mice (0.6 mg/kg in 0.9 percent saline, […] per nostril). […] Dynamic T1-weighted MR imaging detected signal enhancement and post-processing algorithms calculate a relative rate of transport. […]

Data set [2] relates to rodent model of traumatic brain injury. Nature of the data set: MRI (T1-weighted, quantitative T2 maps) of injury volume and edema after controlled cortical impact. The format is in vivo, C57BL6 mice. Here is the method:
(§3) Rodent subjects (C57BL6 mice, 10 wks, male, n=12) had craniotomy over the right frontoparietal cortex of 5 mm, plus mild controlled cortical impact (CCI) surgery using a pneumatic impactor (AmScien Instruments, Richmond, Va.) at 6 m/s strike velocity, 1 mm depth of penetration, and 150 ms contact time, under isoflurane anesthesia. Immediately following CCI, 200 ug/kg paclitaxel (n=6) or vehicle (n=6) was applied to the brain injury site. Sham surgery (craniotomy, but no CCI) was performed on controls (n=3).
(§4) At 2 days post-surgery, gait assessment of the subjects was conducted using CatWalk automated gait analysis (Noldus Information Tech, The Netherlands) followed by high-tesla magnetic resonance imaging (14T MR Avance III Ultrashield, Bruker BioSpin, Billerica, Mass.). T1-weighted and quantitative T2 maps were obtained: MDEFT (3D modified driven equilibrium Fourier transform), […]: 12°, TR (repetition time): 5000 ms, TE (echo time): 1.9ms, resolution 0.140×0.140×0.25 mm^3, 64 slices; T2 map: TR=2000 ms, 16 echoes, spacing:6.7 ms, TE1: 6.7 ms, TE 2:13.4 ms, resolution 0.12×0.12×1.0 mm^3, 15 slices. Manual volume of interest (VOI) analysis of injury volume and volume of edema related to injury was performed.

Data set [3] in a line: [3H] paclitaxel distribution in brain via intranasal administration. The class given is in vivo, male CD-1 mice. The settings on record: 1 μCi [3H] paclitaxel in 1 μl PBS to the right nares. As for the experimental part:
FIGS. 4 A and 4B are graphs showing [^3H] paclitaxel distribution via intranasal administration in male CD-1 mice, 8 weeks, after administration of 1 μCi of [^3H] paclitaxel in 1 μl PBS to the right nares;
FIGS. 4A and 4B show distribution of a taxane (paclitaxel) in the brain, when the taxane is administered intranasally. […] Thus, the intranasally administered taxane can bypass the blood-brain barrier (BBB) via the olfactory epithelium, and thereby provide therapeutic effect to a subject. The treatment methods can advantageously administer drug to the brain (e.g., an injured area of the brain) while minimizing side effects in non-target organs. The methods can have widespread applications. For example, intranasal administration of taxanes can result in decreased neuroinflammation, and can therefore be used in treatment of neuroinflammatory conditions, such as neurodegenerative diseases including Alzheimer's disease and related tauopathies, multiple sclerosis, viral infections, Parkinson's disease, as well as head trauma and mild concussions.

The next data set deals with 3×Tg-AD mice. Nature of the data set: Manganese-enhanced MRI (MEMRI) of axonal transport rates in the olfactory tract, 3×Tg-AD mice. The class given is in vivo. The settings on record: intranasal 0.6 mg/kg, vs saline or young wild-type controls.
Excerpt: as §1, with “Mice are scanned dynamically for 45 min (early uptake) at 1 hour post administration, allowed to recover and scanned again at 4-6 hours post (late transport) for 60 min. DTI acquired as 4 shot echo planar image (EPI); TR/TE=4000/18 ms, 30 diffusion directions, multislice 2D, b=1000 s/mm2, FOV 19×19 mm, matrix size=128×128 with slice thickness=0.5 mm over 9 min.” left out
The effect of intra-nasal treatment of taxanes on the development of neurodegenerative pathology in a model of Alzheimer's disease was also studied. […] Treatment effectiveness was assessed with the same outcome measures as described in Example 1.
as §2

The test system of a further data set is spinal cord injury. The settings on record: after spinal cord injury; cited from earlier work.
Data set [4] concerns rodent model of traumatic brain injury. Description: Macromolecular proton fraction (MPF) imaging of myelin density adjacent to injury after CCI. The class given is in vivo, C57BL6 mice. Here is the method: as §3
Macromolecular proton fraction (MPF) imaging is a quantitative magnetic resonance technique that measures the magnetization transfer between protons bound to water and protons bound to macromolecules. MPF imaging was performed to evaluate myelin degradation adjacent to injury. […] Mean myelin density was calculated for a region of interest (circular region having a diameter of […]) that was larger than the actual injury (1.5 mm).

Data set [5] shares this test system. Nature of the data set: Fractional anisotropy imaging of external capsule integrity after CCI. The class given is in vivo, C57BL6 mice. The note with it: following CCI; paclitaxel not intranasally administered. As for the experimental part:
as §3
The MPF results were corroborated using cross-relaxation imaging. Cross-relaxation imaging (CRI) is a quantitative magnetic resonance technique that measures the kinetic parameters of magnetization transfer between protons bound to water and protons bound to macromolecules. Here, in vivo, four-parameter CRI of normal rat brains (n=5) at 3.0 T was first directly compared to histology. The bound pool fraction, f, was strongly associated with myelin density (Pearson's r=0.99, p<0.001). The correlation persisted in separate analyses of gray matter (GM; r=0.89, p=0.046) and white matter (WM; r=0.97, p=0.029). The CRI results validated the MPF results, in that the taxane helped to preserve myelin density around the injury. Fractional anisotropy imaging was carried out to evaluate the integrity of underlying external capsule. […]

Data set [6] has the same test system. Description: CatWalk automated gait analysis after CCI. The class given is in vivo, C57BL6 mice. As for the experimental part:
as §3, §4

Data set [7] deals with AD transgenic mouse models. The settings on record: in vivo; cited from earlier work.

As for `CC(=O)O[C@H]1C(=O)[C@@]2(C)[C@H]([C@H](OC(=O)c3ccccc3)[C@]3(O)C[C@H](OC(=O)[C@H](O)[C@@H](NC(=O)c4ccccc4)c4ccccc4)C(C)=C1C3(C)C)[C@]1(OC(C)=O)CO[C@@H]1C[C@@H]2O` [paclitaxel], the “GFAP expression / reactive astrocytes in CA1 region of hippocampus” value in [1] is “decreased evidence of activated astrocytes; also recorded: markedly reduced reactive astrocytes; also recorded: reduced GFAP expression levels; also recorded: showing reduced”. For the same compound, the axonal transport rates result in the data set on wild-type mice was “relatively increased”. In [2] (200 ug/kg applied to brain injury site immediately after CCI, MRI 2 days post-surgery, vs vehicle 9.96±2.3, p≦0.05), this compound displayed an injury volume of 7.94±1.5 mm^3. Moreover, in data set [2] (200 ug/kg applied to brain injury site, 2 days post-surgery, vs vehicle 11.92±3.0, p≦0.05), the “hyperintense voxels (edema) on quantitative T2 maps” value worked out at 8.86±2.2 mm^3. Further, in data set [2] (200 ug/kg applied to brain injury site, vs vehicle), the “reduction of hyperintense voxels (edema)” value is 26%. In data set [2] (200 ug/kg applied to brain injury site, vs vehicle, T2 and T1 images), the “reduction in injury volume” value is 20%. In addition, the “injury volume on T1-weighted MRI (in words)” value in [2] (paclitaxel versus saline treatment) was “indicating reduced injury”. Also, in data set [3], the “brain regions taking up taxane (FIG. 4A)” value is “taken up by the olfactory bulbs, the striatum, the hippocampus, the frontal cortex, the hypothalamus, and the cerebellum”; the “regional brain uptake level (second distribution graph)” value is “high striatum and hypothalamus uptake”. The axonal transport rates result in the data set on 3×Tg-AD mice was “increased transport significantly; also recorded: Improved axonal transport rates; also recorded: relatively increased”. For the same compound, the axon regeneration entry with spinal cord injury is “facilitate axon regeneration”. In addition, the “MPF bound percent, injury side” value in data set [4] (mn±sd, vs vehicle 8.95±0.3, p≦0.05) is listed as 9.45±0.4. In addition, in [4] (vs vehicle), the “MPF bound percent, contralateral cortical area” value is given as “No difference” and the “increase of MPF bound percent on the injury side” value is given as 6.6%. Besides, the “underlying white matter integrity (FA values in external capsule)” value in data set [5] was “No significant improvement”. The compound also showed a maximum print area in data set [6] (2 days post-surgery, vs vehicle 0.29±0.08, p≦0.05) of 0.38±0.09 cm^2. This compound also returned a mean intensity in data set [6] (2 days post-surgery, vs vehicle 66.38±5.52, p≦0.05) of 79.45±14.26. Further, the “swing, decreased” value in data set [6] (right front (RF) and left hind (LF) only, vs vehicle) was 12%. In addition, the “print length, increase” value in data set [6] (right hind (RH) only, vs vehicle) is 12%. Also, in data set [6] (short term, 8 days, paclitaxel over saline treated subjects), the “gait parameters (in words)” value is reported as “Improved gait parameters”. In data set [6] (vs vehicle), the “maximum print area, increased” value is 22-52%; the “mean intensity, increased” value is listed as 19-22%; the “print area, increased” value is given as 20-45%; the “print width, increased” value is on record as 5-17%.

`C/C1=C/C[C@@H](/C(C)=C/c2csc(C)n2)OC(=O)C[C@H](O)C(C)(C)C(=O)[C@H](C)[C@@H](O)[C@@H](C)CCC1` [epothilone D]: in [7], the cognitive performance result is recorded as “improve cognitive performance” and the tau pathology entry is “reduce associated tau pathology”.
